Measurements published in ChEMBL document CHEMBL1201862, “PubChem BioAssay data set” (2004).
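96-well plates; 48 h exposure; 5 concentrations. Endpoints by linear interpolation between flanking doses. Not reached: highest tested concentration assigned. The concentration for 50% growth inhibition is given as GI50.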 Activity calls are given as the source filed them. No stated cut-off is given here; in the data, active = GI50 up to about 1.1 µM and inactive = higher.

What was measured:
Experiment in all cases: growth of human tumour cells (NCI), 48 h
A549 = tested on: A549
COLO 205 = tested on: COLO 205
EKVX = tested on: EKVX
HCC 2998 = tested on: HCC 2998
HCT-116 = tested on: HCT-116
HCT-15 = tested on: HCT-15
MDA-MB-231 = tested on: MDA-MB-231
OVCAR-4 = tested on: OVCAR-4
PC-3 = tested on: PC-3
RPMI-8226 = tested on: RPMI-8226
SF-295 = tested on: SF-295
SK-OV-3 = tested on: SK-OV-3
TK-10 = tested on: TK-10
UACC-257 = tested on: UACC-257
UACC-62 = tested on: UACC-62
HOP-92 = tested on: HOP-92
MDA-MB-435 = tested on: MDA-MB-435
MDA-N = tested on: MDA-N
NCI-H23 = tested on: NCI-H23
SNB-19 = tested on: SNB-19

| SMILES | GI50 (A549) | GI50 (COLO 205) | GI50 (EKVX) | GI50 (HCC 2998) | GI50 (HCT-116) | GI50 (HCT-15) | GI50 (MDA-MB-231) | GI50 (OVCAR-4) | GI50 (PC-3) | GI50 (RPMI-8226) | GI50 (SF-295) | GI50 (SK-OV-3) | GI50 (TK-10) | GI50 (UACC-257) | GI50 (UACC-62) | GI50 (HOP-92) | GI50 (MDA-MB-435) | GI50 (MDA-N) | GI50 (NCI-H23) | GI50 (SNB-19) |
| --- | --- | --- | --- | --- | --- | --- | --- | --- | --- | --- | --- | --- | --- | --- | --- | --- | --- | --- | --- | --- |
| CCCCCCCCCC[C@@H](O)[C@@H]1CC[C@@H]([C@@H]2CC[C@@H]([C@@H](O)CCCCCCCCCCC(O)CC3=CC(C)OC3=O)O2)O1 (stereo partly specified) | 2.53 µM (inactive) | > 10 µM (inactive) | 3.03 µM (inactive) | 4.84 µM (inactive) | 0.551 µM (active) | 5.89 µM | 2.32 µM (inactive) | 1.38 µM (inactive) | 5.04 µM (inactive) | 1.26 µM (inactive) | 2.72 µM (inactive) | > 10 µM (inactive) | > 10 µM (inactive) | 2.42 µM (inactive) | 3.79 µM (inactive) | – | – | – | – | – |
| CC1(C)O[C@H]2OC(CO[Si](C)(C)C(C)(C)C)C(N=[N+]=[N-])[C@H]2O1 (stereo partly specified) | 18.2 µM (inactive) | – | 22.8 µM (inactive) | 17.8 µM (inactive) | 15.6 µM (inactive) | 21.1 µM | – | 26.3 µM (inactive) | 20.3 µM (inactive) | 13 µM (inactive) | 11.8 µM (inactive) | 14 µM (inactive) | 19.1 µM (inactive) | 18 µM (inactive) | 19.1 µM (inactive) | 23.9 µM (inactive) | 25.8 µM (inactive) | 23.7 µM (inactive) | 19.2 µM (inactive) | 17.7 µM (inactive) |
| O=P1(O)C=CC2(CCCC2)O1 | > 100 µM (inactive) | > 100 µM (inactive) | > 100 µM (inactive) | > 100 µM (inactive) | > 100 µM (inactive) | > 100 µM | – | > 100 µM (inactive) | > 100 µM (inactive) | – | > 100 µM (inactive) | > 100 µM (inactive) | > 100 µM (inactive) | > 100 µM (inactive) | > 100 µM (inactive) | > 100 µM (inactive) | > 100 µM (inactive) | > 100 µM (inactive) | > 100 µM (inactive) | > 100 µM (inactive) |
| CC(=O)NNc1nc(C)c(C(=O)NNC(=O)C(=O)Nc2c(C)cccc2C(C)(C)C)s1 | 46.9 µM (inactive) | 46.8 µM (inactive) | > 100 µM (inactive) | 25.6 µM (inactive) | 75.2 µM (inactive) | 59.7 µM | – | 40.3 µM (inactive) | – | 45.9 µM (inactive) | > 100 µM (inactive) | > 100 µM (inactive) | > 100 µM (inactive) | > 100 µM (inactive) | 97.9 µM (inactive) | > 100 µM (inactive) | – | – | > 100 µM (inactive) | > 100 µM (inactive) |
| Cc1nc2c(=O)[nH]c(=O)n(C)c2[nH]c1=O.c1ccncc1 | > 100 µM (inactive) | > 100 µM (inactive) | > 100 µM (inactive) | > 100 µM (inactive) | > 100 µM (inactive) | > 100 µM | – | > 100 µM (inactive) | – | > 100 µM (inactive) | – | > 100 µM (inactive) | > 100 µM (inactive) | > 100 µM (inactive) | > 100 µM (inactive) | > 100 µM (inactive) | – | – | > 100 µM (inactive) | > 100 µM (inactive) |
| CCOC(=O)C(NC(=O)Nc1ccccc1F)(OC)C(F)(F)F (stereo unspecified) | > 100 µM (inactive) | > 100 µM (inactive) | > 100 µM (inactive) | > 100 µM (inactive) | > 100 µM (inactive) | > 100 µM | – | – | > 100 µM (inactive) | > 100 µM (inactive) | – | > 100 µM (inactive) | > 100 µM (inactive) | > 100 µM (inactive) | – | – | > 100 µM (inactive) | > 100 µM (inactive) | > 100 µM (inactive) | > 100 µM (inactive) |
| O=C1c2ccccc2-c2nc(/C=C/c3ccccc3)cc3c2c1nc1ccccc13 | 30.6 µM (inactive) | 20.5 µM (inactive) | 53.8 µM (inactive) | 20.4 µM (inactive) | 17.4 µM (inactive) | 2.52 µM | 24.4 µM (inactive) | 68.7 µM (inactive) | 4.56 µM (inactive) | 15.1 µM (inactive) | 23 µM (inactive) | 34.1 µM (inactive) | 81.8 µM (inactive) | 89.5 µM (inactive) | 9.82 µM (inactive) | 26.5 µM (inactive) | 13.9 µM (inactive) | – | 12.1 µM (inactive) | 80.5 µM (inactive) |
| COc1cc2c3c(c1OC)Oc1ccc(cc1)CC1c4c(cc(OC)c(OC)c4Oc4ccc(cc4)CC3N(C)CC2)CCN1C (stereo unspecified) | 26.2 µM (inactive) | 13.5 µM (inactive) | 67.6 µM (inactive) | 14 µM (inactive) | 13.8 µM (inactive) | – | – | 13.3 µM (inactive) | – | 25.6 µM (inactive) | 18.5 µM (inactive) | 28.2 µM (inactive) | 22.1 µM (inactive) | 13.8 µM (inactive) | 19 µM (inactive) | 32.6 µM (inactive) | – | – | 57.9 µM (inactive) | 33 µM (inactive) |
